Patent US12492173B2, “Herbicidal substituted N-tetrazolyl aryl carboxamides” (Bayer Aktiengesellschaft, priority 2019, dated 2025)

Experiments:
Assay type in all cases: in vivo
[1] = system: Stellaria media; assay: Post-emergence herbicidal action, STEME; design: key: % herbicidal action vs untreated; 100 = plants died, 0 = like control
Method in brief: (§1)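 Treatment: post-emergence spray, one-leaf stage. Medium: sandy loam, greenhouse. Carrier: 600–800 l/ha water, 0.2% wetting agent. Read-out: visual % activity at ~3 weeks, untreated plants as reference.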

[2] = system: Hordeum murinum; assay: Pre-emergence herbicidal action, HORMU; settings: dosage 320 g/ha, scored visually after 3 weeks vs untreated controls (100% = plants have died)
Method in brief: (§2)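 Sown pots (sandy loam) sprayed pre-emergence → greenhouse → visual rating at 3 weeks; % activity vs untreated control, 100% = dead.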

[3] = system: Amaranthus retroflexus; assay: Pre-emergence herbicidal action, AMARE; design: key to Herbicidal action against AMARE: % activity: 100 = plants have died, 0 = like control plants; settings: for herbicidal activity AMARE: dosage 320 g/ha, scored visually after 3 weeks vs untreated controls (100% = plants have died)
Method in brief: as §2

[4] = system: Lolium rigidum; assay: Pre-emergence herbicidal action, LOLRI; settings: dosage 320 g/ha, scored visually after 3 weeks vs untreated controls (100% = plants have died)
Excerpt: 1. Pre-Emergence Herbicidal Action Against Harmful Plants Seeds of monocotyledonous and dicotyledonous weed plants and crop plants are laid out in sandy loam soil in wood-fiber pots and covered with soil. The compounds of the invention, formulated in the form of wettable powders (WP) or as emulsion concentrates (EC), are then applied to the surface of the covering soil in the form of an aqueous suspension or emulsion at a water application rate equating to 600 to 800 l/ha, with addition of 0.2% wetting agent. After the treatment, the pots are placed in a greenhouse and kept under good growth conditions for the trial plants. The damage to the test plants is scored visually after a test period of 3 weeks by comparison with untreated controls (herbicidal activity in percent (%): 100% activity=the plants have died, 0% activity=like control plants). […] The tables below illustrate, in an exemplary manner, the […] herbicidal action of the compounds according to the invention, the herbicidal activity being stated in percent. [table] In the experiments that follow, herbicidal action of numerous inventive compounds and the known compounds that are structurally closest from D1 (WO 2012/028579 A1) and D2 (WO 2018/202535 A1) were compared under the above-specified conditions by the pre-emergence and post-emergence method. The example numbers given in the tables relate to the compounds disclosed in the respective documents. In addition to the compounds disclosed in D1 and D2, the following compounds V-1 to V-14 that are encompassed by D1 or D2 but are not compounds specified therein were used in the comparative experiments: • V-1: 2-(methylsulfanyl)-3-(methylsulfinyl)-N-(1-methyl-1H-tetrazol-5-yl)-4-(trifluoromethyl)benzamide • V-2: 2-(methylsulfanyl)-3-(methylsulfonyl)-N-(1-methyl-1H-tetrazol-5-yl)-4-(trifluoromethyl)benzamide • V-3: 2,3-bis(ethylsulfanyl)-N-(1-methyl-1H-tetrazol-5-yl)-4-(trifluoromethyl)benzamide • V-4: 2-chloro-3-(ethylsulfanyl)-N-(1-methyl-1H-tetrazol-5-yl)-4-(trifluoromethyl)benzamide • V-5: 2-chloro-4-iodo-3-(methylsulfanyl)-N-(1-methyl-1H-tetrazol-5-yl)benzamide • V-6: 2-chloro-4-iodo-3-(methylsulfinyl)-N-(1-methyl-1H-tetrazol-5-yl)benzamide • V-7: 2-chloro-4-iodo-3-(methylsulfonyl)-N-(1-methyl-1H-tetrazol-5-yl)benzamide • V-8: 2-bromo-3-(methylsulfanyl)-N-(1-methyl-1H-tetrazol-5-yl)-4-(trifluoromethyl)benzamide • V-9: 2-bromo-3-(methylsulfinyl)-N-(1-methyl-1H-tetrazol-5-yl)-4-(trifluoromethyl)benzamide • V-10: 2-bromo-3-(methylsulfonyl)-N-(1-methyl-1H-tetrazol-5-yl)-4-(trifluoromethyl)benzamide • V-11: 2-bromo-3-(ethylsulfanyl)-N-(1-methyl-1H-tetrazol-5-yl)-4-(trifluoromethyl)benzamide • V-12: 2-bromo-3-(ethylsulfinyl)-N-(1-methyl-1H-tetrazol-5-yl)-4-(trifluoromethyl)benzamide • V-13: 2-bromo-3-(ethylsulfonyl)-N-(1-methyl-1-1H-tetrazol-5-yl)-4-(trifluoromethyl)benzamide • V-14: 2-cyclopropyl-3-(ethylsulfanyl)-N-(1-methyl-1H-tetrazol-5-yl)-4-(trifluoromethyl)benzamide Herbicidal Pre-Emergence Action: […]

[5] = system: Matricaria inodora; assay: Post-emergence herbicidal action, MATIN; design: key: % herbicidal action vs untreated; 100 = plants died, 0 = like control
Method in brief: as §1

[6] = system: Polygonum convolvulus; assay: Post-emergence herbicidal action, POLCO
Method in brief: as §1

Row | Compound | herbicidal action STEME ([1]; Dosage 80 g/ha) | herbicidal activity HORMU [2] | herbicidal activity AMARE [3] | herbicidal activity LOLRI [4] | herbicidal action MATIN ([5]; Dosage 80 g/ha) | herbicidal action POLCO ([6]; Dosage 80 g/ha) | herbicidal action STEME ([1]; post-emergence, dosage 80 g/ha) | herbicidal action POLCO ([6]; post-emergence, dosage 80 g/ha) | herbicidal action MATIN ([5]; post-emergence, dosage 80 g/ha) | Herbicidal action against AMARE ([3]; comparative experiment, 20 g of a.i./ha)
1 | Cn1nnnc1NC(=O)c1ccc(C(F)(F)F)c(CSCC(F)(F)F)c1Cl [Example 1-311] | 100 | 100% | 100% | 100% | 100 | – | – | – | – | –
2 | CCn1nnnc1NC(=O)c1ccc(I)c(C[S+](C)[O-])c1Cl (centres unmarked) [Example 2-363] | 100 | 100% | 100% | 100% | 100 | 100 | – | – | – | –
3 | Cn1nnnc1NC(=O)c1ccc(C(F)(F)F)c(CSC2CC2)c1Cl [Example 1-302] | – | 100% | 100% | 100% | – | – | 100% | 100% | 90% | –
4 | Cn1nnnc1NC(=O)c1ccc(C(F)(F)F)c(CS(=O)(=O)C2CC2)c1Cl [Example 1-304] | – | 100% | 100% | 100% | – | – | 100% | 100% | 90% | –
5 | C=CCSCc1c(C(F)(F)F)ccc(C(=O)Nc2nnnn2CCC)c1Cl [Example 3-308] | 100 | 80% | 100% | 80% | 100 | – | – | – | – | –
6 | CCn1nnnc1NC(=O)c1ccc(C(F)(F)F)c(CSCCOC)c1Cl [Example 2-305] | – | 100% | 100% | 100% | – | – | 100% | 100% | 100% | –
7 | Cn1nnnc1NC(=O)c1ccc(I)c(CS(C)(=O)=O)c1Cl [Example 1-364] | 100 | 90% | 100% | 80% | 100 | 100 | – | – | – | 100
8 | CC[S+]([O-])Cc1c(C(F)(F)F)ccc(C(=O)Nc2nnnn2C)c1Cl (racemic) [Example 1-300] | – | 100% | 100% | 100% | – | – | 100% | 100% | 100% | –
9 | CCn1nnnc1NC(=O)c1ccc(C(F)F)c(C[S+]([O-])CC)c1Cl (centres unmarked) [Example 2-324] | – | 100% | 100% | 90% | – | – | 100% | 100% | 100% | –
10 | CCn1nnnc1NC(=O)c1ccc(C(F)(F)F)c(CSCC(F)(F)F)c1Cl [Example 2-311] | 100 | 80% | 100% | 90% | 100 | 90 | – | – | – | –
11 | CCn1nnnc1NC(=O)c1ccc(C(F)(F)F)c(C[S+]([O-])CC)c1Cl (centres unmarked) [Example 2-300] | – | 100% | 100% | 100% | – | – | 100% | 100% | 90% | –
